This is an account of results in US11000033B2, “Ketone or oxime compound, and herbicide” (NISSAN CHEMICAL CORPORATION, priority 2014, dated 2021).

Format in all cases: in vivo
For data set [1], the system named is wheat. Nature of the data set: Test Example 5: effect on crop by foliage application, plastic box (symbol e). The settings on record: 320 g/ha, 3 weeks after application. Summed up: (§1)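 Plants were raised from seed in a greenhouse (25° C. to 30° C.) after sowing in a plastic box of sterilized diluvial soil.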
Data set [2] deals with Setaria viridis. As to the kind of experiment: Test Example 5: herbicidal effect by foliage application, plastic box (symbol G). The settings on record: 320 g/ha, 3 weeks after application. A digest of the protocol: (§2)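 Emulsion formulation, diluted with water to the intended rate, was applied uniformly to leaves by small sprayer. Recipients were 14-day greenhouse-grown seedlings (25° C. to 30° C.). Assessment followed at 3 weeks.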

The next data set relates to Alopecurus myosuroides. Nature of the data set: Test Example 5: herbicidal effect by foliage application, plastic box (symbol J). The settings on record: 320 g/ha, 3 weeks after application. Summed up:
as §2

The test system of another data set is Amaranthus retroflexus. Nature of the data set: Test Example 4: herbicidal effect by soil treatment (symbol N). The settings on record: application herbicide amount 320 g/ha. A digest of the protocol: (§3)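 Seeds were sown in sterilized diluvial soil, covered with about 1.5 cm of soil, and the soil surface was sprayed with a water-diluted emulsion of the compound at a predetermined rate. Plants grew in a greenhouse at 25° C. to 30° C.; effects were scored visually 3 weeks after application.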

The test system of a further data set is Leptochloa chinensis. As to the kind of experiment: Test Example 3: herbicidal effect by foliage application, Wagner pot (symbol D). The settings on record: application herbicide amount 320 g/ha. A digest of the protocol:
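The compound, formulated as an emulsion and diluted with water to a predetermined rate, is applied uniformly to leaves of two-week-old seedlings growing in submerged alluvial soil at 25–30 °C. Rice is included. Each plant is assessed 3 weeks later using defined criteria.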

The next data set concerns Chenopodium album. Nature of the data set: Test Example 5: herbicidal effect by foliage application, plastic box (symbol O). The settings on record: 320 g/ha, 3 weeks after application. A digest of the protocol: as §2
The subject of the next data set is beet. As to the kind of experiment: Test Example 5: effect on crop by foliage application, plastic box (symbol f). The settings on record: 320 g/ha, 3 weeks after application. Summed up:
as §1

Data set [3] concerns wheat. As to the kind of experiment: Test Example 4: effect on crop by soil treatment (symbol e). The settings on record: application herbicide amount 320 g/ha. Summed up: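 Plants grew in a 25° C. to 30° C. greenhouse after spot-sowing of seeds, including beet, rapeseed, wheat and rice, into sterilized diluvial soil under roughly 1.5 cm of cover soil.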
Data set [4] has as its system Setaria viridis. As to the kind of experiment: Test Example 4: herbicidal effect by soil treatment (symbol G). The settings on record: application herbicide amount 320 g/ha. A digest of the protocol: as §3
The next data set has as its system rice plant. Nature of the data set: Test Example 5: effect on crop by foliage application, plastic box (symbol b). The settings on record: 320 g/ha, 3 weeks after application. A digest of the protocol:
as §1

A further data set has as its system corn. Nature of the data set: Test Example 5: effect on crop by foliage application, plastic box (symbol c). The settings on record: 320 g/ha, 3 weeks after application. Summed up:
as §1

Data set [5] relates to Echinochloa oryzacola Vasing. Nature of the data set: Test Example 2: herbicidal activity, application during weed generation in submerged conditions (symbol A). The settings on record: Table 23; application herbicide amount 320 g/ha; grade 0-5 by criteria of Test Example 1. Summed up: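 Treatment timing was the one- to two-leaf stage, with diluted emulsifiable compound dropped onto the paddy water (depth 4 cm) over alluvial soil. All three species grew from a mixed sowing in a 25° C. to 30° C. greenhouse. Injury was judged by eye 3 weeks on.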

`CON=C(C)CC1CC(O)=C(c2c(C)cc(-c3ccc(OC)cc3)cc2C)C1=O` (mixture of isomers) [6-017]: the “e: wheat, effect on crop grade” value with wheat [1] was 1 (Herbicidal ratio of 5% or higher and lower than 20%); in the data set on wheat [3] it was 0 (Herbicidal ratio of 5% or lower (almost no effect)). Also, the “G: Setaria viridis, herbicidal effect grade” value with Setaria viridis [2] and in the data set with Setaria viridis [4] was 5 (Herbicidal ratio of 90% or more (almost completely withered)) each time. In the data set with Alopecurus myosuroides, the “J: Alopecurus myosuroides, herbicidal effect grade” value is given as 5 (Herbicidal ratio of 90% or more (almost completely withered)). In addition, the “N: Amaranthus retroflexus, herbicidal effect grade” value in the data set with Amaranthus retroflexus was 1 (Herbicidal ratio of 5% or higher and lower than 20%). Further, the “herbicidal effect on D (Leptochloa chinensis), grade 0-5” value in the data set on Leptochloa chinensis was 5 (Herbicidal ratio of 90% or more (almost completely withered)). Besides, in the data set with Chenopodium album, the “O: Chenopodium album, herbicidal effect grade” value is 4 (Herbicidal ratio of 70% or higher and lower than 90%). Besides, the “f: beet, effect on crop grade” value in the data set with beet is 0 (Herbicidal ratio of 5% or lower (almost no effect)). Moreover, the “b: directly sowed rice plant, effect on crop grade” value with rice plant is 5 (Herbicidal ratio of 90% or more (almost completely withered)). Besides, in the data set with corn, the “c: corn, effect on crop grade” value is given as 5 (Herbicidal ratio of 90% or more (almost completely withered)). Also, in data set [5], the “Herbicidal effect grade, A: Echinochloa oryzacola Vasing.” value was 4 (Herbicidal ratio of 70% or higher and lower than 90%).
For `C=Cc1cc(C)c(C2=C(O)CC(CC(C)=NOC)C2=O)c(C)c1` (mixture of isomers) [6-031], the “e: wheat, effect on crop grade” value in the data set with wheat [1] and in the data set on wheat [3] was 0 (Herbicidal ratio of 5% or lower (almost no effect)) each time. Moreover, the results for the “G: Setaria viridis, herbicidal effect grade” value with Setaria viridis [2] and in the data set on Setaria viridis [4] were 5 (Herbicidal ratio of 90% or more (almost completely withered)) and 0 (Herbicidal ratio of 5% or lower (almost no effect)), respectively. The “J: Alopecurus myosuroides, herbicidal effect grade” value with Alopecurus myosuroides is recorded as 5 (Herbicidal ratio of 90% or more (almost completely withered)). Also, the “N: Amaranthus retroflexus, herbicidal effect grade” value with Amaranthus retroflexus is 4 (Herbicidal ratio of 70% or higher and lower than 90%). In the data set with Leptochloa chinensis, the “herbicidal effect on D (Leptochloa chinensis), grade 0-5” value was 2 (Herbicidal ratio of 20% or higher and lower than 40%). For the same compound, the “O: Chenopodium album, herbicidal effect grade” value in the data set on Chenopodium album was 3 (Herbicidal ratio of 40% or higher and lower than 70%). Moreover, in the data set on beet, the “f: beet, effect on crop grade” value was 0 (Herbicidal ratio of 5% or lower (almost no effect)). In addition, the “b: directly sowed rice plant, effect on crop grade” value in the data set on rice plant is reported as 5 (Herbicidal ratio of 90% or more (almost completely withered)). Moreover, the “c: corn, effect on crop grade” value in the data set on corn is 4 (Herbicidal ratio of 70% or higher and lower than 90%). In addition, the “Herbicidal effect grade, A: Echinochloa oryzacola Vasing.” value in data set [5] was 4 (Herbicidal ratio of 70% or higher and lower than 90%).
